Numbers after ± are expanded uncertainties.
Experiments:
[1] = 101 kPa, Liquid; for viscosity: Capillary tube (Ostwald / Ubbelohde) method; for mass density: Pycnometric method
[2] = xn = mol fraction of the nth substance listed; details: 101 kPa, Liquid; for viscosity: Capillary tube (Ostwald / Ubbelohde) method; for mass density: Pycnometric method

C1COCCO1 [1,4-dioxane]
[1]
Details | mass density [kg/m3] | viscosity [mPa·s]
288.15 K | 1039.1 ± 0.92 | 1.44 ± 0.012
298.15 K | 1027.92 ± 0.92 | 1.185 ± 0.01
308.15 K | 1016.55 ± 0.93 | 1.029 ± 0.009

C1COCCO1 [1,4-dioxane] + CC1COC(=O)O1
[2], x2 = 0
Details | mass density [kg/m3] | viscosity [mPa·s]
288.15 K | 1039.1 ± 0.92 | 1.44 ± 0.012
298.15 K | 1027.92 ± 0.92 | 1.185 ± 0.01
308.15 K | 1016.55 ± 0.93 | 1.029 ± 0.009

CC(=O)CC(C)=O [2,4-pentanedione]
[1]
Details | mass density [kg/m3] | viscosity [mPa·s]
288.15 K | 980.34 ± 0.72 | 0.741 ± 0.006
298.15 K | 972.18 ± 0.73 | 0.67 ± 0.006
308.15 K | 963.46 ± 0.76 | 0.609 ± 0.005

CC1COC(=O)O1 (configuration not stated) [4-methyl-1,3-dioxolan-2-one]
[1]
Details | mass density [kg/m3] | viscosity [mPa·s]
288.15 K | 1208.67 ± 0.99 | 3.086 ± 0.025
298.15 K | 1197.58 ± 0.96 | 2.5 ± 0.021
308.15 K | 1187.16 ± 0.95 | 2.073 ± 0.017

CC1COC(=O)O1 (configuration not stated) [4-methyl-1,3-dioxolan-2-one] + CC(=O)CC(C)=O
[2], x1 = 1
Details | mass density [kg/m3] | viscosity [mPa·s]
288.15 K | 1208.67 ± 0.99 | 3.086 ± 0.025
298.15 K | 1197.58 ± 0.96 | 2.5 ± 0.021
308.15 K | 1187.16 ± 0.95 | 2.073 ± 0.017

C1CCOC1 [tetrahydrofuran]
[1]
Details | mass density [kg/m3] | viscosity [mPa·s]
288.15 K | 892.93 ± 0.86 | 0.508 ± 0.005
298.15 K | 881.96 ± 0.86 | 0.462 ± 0.004
308.15 K | 870.85 ± 0.87 | 0.426 ± 0.004

C1CCOC1 [tetrahydrofuran] + CC1COC(=O)O1
[2], x2 = 0
Details | mass density [kg/m3] | viscosity [mPa·s]
288.15 K | 892.93 ± 0.86 | 0.508 ± 0.005
298.15 K | 881.96 ± 0.86 | 0.462 ± 0.004
308.15 K | 870.85 ± 0.87 | 0.426 ± 0.004
